Data taken from US20230285260A1, “USE OF SACCHARIDES FOR CRYOPROTECTION AND RELATED TECHNOLOGY” (Zeltiq Aesthetics, Inc., priority 2017, published 2023).

Test system: subject's skin
Experiment: pre-cooling skin treatment followed by cooling (freeze) treatment at subject's flank, compared to a control site
Assay type: in vivo, human
Conditions: general statement of the inventors' finding
Protocol: A mixture of trehalose, water, and […] (PG) was tested as a pre-cooling skin treatment. The mixture was formed by combining 100 grams of trehalose, 100 mL of water, and 40 mL of PG. The trehalose was expected to provide cryoprotection, while the water and PG were expected to act as penetration-enhancing excipients. A first site at a subject's right flank was given the pre-cooling skin treatment, while an opposite second site at the subject's left flank was designated as a control. The pre-cooling treatment at the first site included placing a small piece of rayon fabric soaked in […] of the mixture directly onto the subject's skin and waiting for 12 minutes. It was expected that passive diffusion of trehalose into the subject's skin occurred to some extent during this period. Next, an ultrasound cavitation device (40 kHz) was moved top-to-bottom and bottom-to-top over the subject's skin at the first site for 3 minutes. During this period, 5 mL of the mixture was poured over the subject's skin at the first site.
After the pre-cooling skin treatment at the first site, an applicator having a rectangular plate-type heat-transfer surface with an area of 1.7 square inches was used to execute a cooling treatment at the first and second sites. […]

SMILES: OC[C@H]1O[C@H](O[C@H]2O[C@H](CO)[C@@H](O)[C@H](O)[C@H]2O)[C@H](O)[C@@H](O)[C@@H]1O [trehalose]
- reducing cryoinjury to skin cells: effective
